Measurements reported in patent US12037344B2, “NLRP3 modulators” (INNATE TUMOR IMMUNITY, INC., priority 2018, dated 2024).

Assays:
THP-1 cells = assay: Measurement of IL-1β production, hTRF protocol (second alternative procedure), THP-1 cells; format: cell-based, human; conditions: Homo sapiens, THP-1, IL-1β production, human; read-out: NLRP3 hILIB EC50
Outline: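 Compounds, dilution series starting at a final 10 μM, were incubated 2 hours at 37° C with PMA-differentiated THP-1 cells (50 ng/ml overnight; 50,000 cells/well, 2% FBS RPMI). Released IL-1β quantified in supernatant by hTRF kit with 1:40 antibody dilution, 4° C overnight, 665/615 nm ratio.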

TLR7 = target: T1, TLR7 (Homo sapiens, UniProt Q9NYK1); assay: In vitro human TLR7 binding reporter assay (HEK-Blue, NF-kB/AP1-inducible SEAP); format: cell-based; conditions: activity range class, read-out: TLR7 Agonist EC50
T1 construct: human HEK-Blue cells co-expressing a TLR7 or TLR8 gene
T1 sequence (Q9NYK1 27-1049): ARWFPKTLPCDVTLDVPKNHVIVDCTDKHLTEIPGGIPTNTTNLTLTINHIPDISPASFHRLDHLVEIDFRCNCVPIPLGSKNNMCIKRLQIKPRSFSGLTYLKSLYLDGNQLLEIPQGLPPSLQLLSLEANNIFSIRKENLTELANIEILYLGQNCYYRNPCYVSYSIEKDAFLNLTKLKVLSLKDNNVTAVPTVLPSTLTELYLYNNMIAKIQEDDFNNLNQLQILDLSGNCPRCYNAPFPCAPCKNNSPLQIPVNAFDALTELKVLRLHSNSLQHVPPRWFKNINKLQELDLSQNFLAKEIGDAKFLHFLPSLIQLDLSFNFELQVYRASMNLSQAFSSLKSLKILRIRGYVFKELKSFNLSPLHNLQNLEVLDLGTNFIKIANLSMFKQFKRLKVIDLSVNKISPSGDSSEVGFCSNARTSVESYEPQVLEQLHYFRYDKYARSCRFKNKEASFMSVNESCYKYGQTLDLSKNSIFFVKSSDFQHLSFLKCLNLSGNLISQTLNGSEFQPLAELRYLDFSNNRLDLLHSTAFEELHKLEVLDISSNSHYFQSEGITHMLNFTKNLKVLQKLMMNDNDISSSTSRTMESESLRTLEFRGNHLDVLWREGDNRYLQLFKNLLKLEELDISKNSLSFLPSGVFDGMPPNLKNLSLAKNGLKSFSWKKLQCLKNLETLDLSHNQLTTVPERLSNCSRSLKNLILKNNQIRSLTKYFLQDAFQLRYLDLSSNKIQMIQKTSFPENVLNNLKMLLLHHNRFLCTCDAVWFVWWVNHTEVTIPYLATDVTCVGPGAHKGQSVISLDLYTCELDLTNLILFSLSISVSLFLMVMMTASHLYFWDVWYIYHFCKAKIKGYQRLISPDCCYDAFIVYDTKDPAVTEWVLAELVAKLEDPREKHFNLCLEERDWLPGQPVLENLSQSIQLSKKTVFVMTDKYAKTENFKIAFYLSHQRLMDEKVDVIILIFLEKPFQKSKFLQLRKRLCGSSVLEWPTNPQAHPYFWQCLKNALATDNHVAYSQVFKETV
Outline: (§1)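 Cells are seeded and grown for 24 h. Compounds or DMSO are then added and incubated 18 h at 37 °C. Quanti-Blue is added, and SEAP is read after thirty minutes. EC50 values are normalized, with RLU from 50 μM reference standard setting 100% Ymax.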

TLR8 = target: T2, TLR8 (Homo sapiens, UniProt Q9NR97); assay: In vitro human TLR8 binding reporter assay (HEK-Blue, NF-kB/AP1-inducible SEAP); format: cell-based; conditions: activity range class, read-out: TLR8 Agonist EC50
T2 construct: human HEK-Blue cells co-expressing a TLR7 or TLR8 gene
T2 sequence (Q9NR97 27-1041): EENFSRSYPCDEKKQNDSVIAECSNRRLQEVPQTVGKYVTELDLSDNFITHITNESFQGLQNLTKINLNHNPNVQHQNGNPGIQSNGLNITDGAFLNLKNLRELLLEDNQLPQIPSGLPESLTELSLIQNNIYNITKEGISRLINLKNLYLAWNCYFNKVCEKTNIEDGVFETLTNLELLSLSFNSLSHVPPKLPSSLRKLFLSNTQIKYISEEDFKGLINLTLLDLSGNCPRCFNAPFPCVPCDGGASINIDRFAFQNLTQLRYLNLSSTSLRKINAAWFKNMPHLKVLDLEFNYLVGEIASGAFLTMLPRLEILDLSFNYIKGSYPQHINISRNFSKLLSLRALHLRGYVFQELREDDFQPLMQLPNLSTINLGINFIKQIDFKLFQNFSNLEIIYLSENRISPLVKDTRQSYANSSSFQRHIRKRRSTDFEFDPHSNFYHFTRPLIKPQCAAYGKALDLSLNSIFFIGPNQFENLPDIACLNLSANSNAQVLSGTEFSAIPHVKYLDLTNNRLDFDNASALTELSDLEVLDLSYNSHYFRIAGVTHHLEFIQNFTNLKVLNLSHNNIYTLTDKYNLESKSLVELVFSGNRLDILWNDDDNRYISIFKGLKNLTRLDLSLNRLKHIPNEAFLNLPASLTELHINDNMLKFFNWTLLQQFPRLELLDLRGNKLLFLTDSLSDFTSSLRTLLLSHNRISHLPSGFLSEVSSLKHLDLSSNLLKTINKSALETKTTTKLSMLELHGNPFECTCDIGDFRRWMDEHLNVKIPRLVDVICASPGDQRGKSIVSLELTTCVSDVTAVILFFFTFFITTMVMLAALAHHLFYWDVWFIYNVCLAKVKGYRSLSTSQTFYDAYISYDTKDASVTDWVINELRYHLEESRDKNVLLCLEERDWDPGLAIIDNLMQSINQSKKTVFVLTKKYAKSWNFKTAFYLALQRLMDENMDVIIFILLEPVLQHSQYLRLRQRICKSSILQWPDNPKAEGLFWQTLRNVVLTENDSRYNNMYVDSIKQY
Outline: as §1

| EC50 (THP-1 cells) | EC50 (TLR7) | EC50 (TLR8) | SMILES |
| --- | --- | --- | --- |
| 0.88 µM | > 100 µM | > 100 µM | COC[C@H](O)Cn1cc2c(N)nc3cc(-c4cc[nH]n4)ccc3c2n1 [Example 372] |
| 1.25 µM | > 100 µM | > 100 µM | COC[C@@H](O)Cn1cc2c(N)nc3cc(-c4cc[nH]n4)ccc3c2n1 [Example 373] |
| 0.21 µM | > 100 µM | > 100 µM | Nc1nc2cc(-c3cc[nH]n3)ccc2c2nn(CC3CC3(F)F)cc12 (stereo not drawn) [Example 386] |
| 0.31 µM | > 100 µM | > 100 µM | CO[C@@H](CO)Cn1cc2c(N)nc3cc(-n4cccn4)ccc3c2n1 [Example 388] |
| 1.73 µM | > 100 µM | > 100 µM | Nc1nc2cc(-c3cc[nH]n3)ccc2c2nn([C@H]3CC[C@H](O)CC3)cc12 [Example 393] |
| 0.46 µM | > 100 µM | > 100 µM | Nc1nc2cc(-c3cc[nH]n3)ccc2c2nn([C@H]3CC[C@@H](O)CC3)cc12 [Example 394] |

Second part, the molecule before the results:

| SMILES | EC50 (THP-1 cells) | EC50 (TLR7) | EC50 (TLR8) |
| --- | --- | --- | --- |
| CC(C)C(O)Cn1cc2c(N)nc3cc(-c4cc[nH]n4)ccc3c2n1 (stereo not drawn) [Example 374] | 0.65 µM | > 100 µM | > 100 µM |
| CC(C)(C)OCC(O)Cn1cc2c(N)nc3cc(-c4cc[nH]n4)ccc3c2n1 (stereo not drawn) [Example 375] | 4.12 µM | > 100 µM | > 100 µM |
| N#CC[C@H](O)Cn1cc2c(N)nc3cc(-c4cc[nH]n4)ccc3c2n1 [Example 380] | 0.77 µM | > 100 µM | > 100 µM |
| N#CC[C@@H](O)Cn1cc2c(N)nc3cc(-c4cc[nH]n4)ccc3c2n1 [Example 381] | 0.74 µM | > 100 µM | > 100 µM |
| Nc1nc2cc(-c3cc[nH]n3)ccc2c2nn(C[C@@H]3C[C@H](O)CN3)cc12 [Example 382] | 5.39 µM | > 100 µM | > 100 µM |
| Nc1nc2cc(-c3cc[nH]n3)ccc2c2nn(CCN3CCCC3=O)cc12 [Example 383] | 1.38 µM | > 100 µM | > 100 µM |
| Nc1nc2cc(-c3cc[nH]n3)ccc2c2nn(C[C@@H]3CCC(=O)N3)cc12 [Example 384] | 0.88 µM | > 100 µM | > 100 µM |
| Nc1nc2cc(-c3cc[nH]n3)ccc2c2nn(C[C@H]3CCC(=O)N3)cc12 [Example 385] | 2.51 µM | > 100 µM | > 100 µM |
| CS(=O)(=O)CCCn1cc2c(N)nc3cc(-n4cccn4)ccc3c2n1 [Example 387] | 2.3 µM | > 100 µM | > 100 µM |
| Nc1nc2cc(-n3cccn3)ccc2c2nn(C[C@@H](O)CO)cc12 [Example 389] | 0.91 µM | > 100 µM | > 100 µM |
| Nc1nc2cc(-n3cccn3)ccc2c2nn(CC(F)F)cc12 [Example 390] | 0.35 µM | > 100 µM | > 100 µM |
| Nc1nc2cc(-n3cccn3)ccc2c2nn(CCc3c[nH]cn3)cc12 [Example 391] | 0.2 µM | > 100 µM | > 100 µM |
| N#CCCCn1cc2c(N)nc3cc(-c4cc[nH]n4)ccc3c2n1 [Example 392] | 0.08 µM | > 100 µM | > 100 µM |
